The record followed here is patent US10428080B2, “TBK/IKK inhibitor compounds and uses thereof” (Merck Patent GmbH, priority 2015, dated 2019).

What is called IC50 is the concentration that gives 50% inhibition.

Counter-ions that a name gives are not always drawn. Some results are limits rather than exact numbers.

One assay has as its target T1, IKKε (Homo sapiens, UniProt Q14164).
T1 sequence (Q14164 1-716): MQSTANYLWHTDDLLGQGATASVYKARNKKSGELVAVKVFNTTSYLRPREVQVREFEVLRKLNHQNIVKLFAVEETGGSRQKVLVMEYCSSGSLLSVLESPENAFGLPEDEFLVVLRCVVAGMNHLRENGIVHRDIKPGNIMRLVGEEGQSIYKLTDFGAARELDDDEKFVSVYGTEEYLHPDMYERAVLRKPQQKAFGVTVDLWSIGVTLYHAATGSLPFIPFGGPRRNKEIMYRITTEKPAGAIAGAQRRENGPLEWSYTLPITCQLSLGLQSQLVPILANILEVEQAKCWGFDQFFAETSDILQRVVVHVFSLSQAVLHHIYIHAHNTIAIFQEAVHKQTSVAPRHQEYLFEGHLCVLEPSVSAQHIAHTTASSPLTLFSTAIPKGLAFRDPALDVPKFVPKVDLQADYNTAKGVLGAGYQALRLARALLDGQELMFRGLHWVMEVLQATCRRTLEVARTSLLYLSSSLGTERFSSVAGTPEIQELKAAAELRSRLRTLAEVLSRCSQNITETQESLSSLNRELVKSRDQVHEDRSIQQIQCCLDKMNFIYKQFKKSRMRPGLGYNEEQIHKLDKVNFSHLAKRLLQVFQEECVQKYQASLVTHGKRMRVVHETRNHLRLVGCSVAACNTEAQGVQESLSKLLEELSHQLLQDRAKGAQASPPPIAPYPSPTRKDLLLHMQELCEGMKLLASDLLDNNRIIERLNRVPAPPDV
The assay is described as follows: IKKe Biochemical Assay. Conditions: read-out: IKKε IC50. An outline of the steps: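 Recombinant IKKε and substrate were incubated with compound (10-point 1:4 series, top 30 uM final, 1% DMSO) for 90 min at 25° C, then stopped. Substrate-to-product conversion was read by LabChip microfluidic mobility shift; 10 uM staurosporine served as full-inhibition wells.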

The next assay addresses T2, TBK1 (Homo sapiens, UniProt Q9UHD2).
T2 sequence (Q9UHD2 1-729): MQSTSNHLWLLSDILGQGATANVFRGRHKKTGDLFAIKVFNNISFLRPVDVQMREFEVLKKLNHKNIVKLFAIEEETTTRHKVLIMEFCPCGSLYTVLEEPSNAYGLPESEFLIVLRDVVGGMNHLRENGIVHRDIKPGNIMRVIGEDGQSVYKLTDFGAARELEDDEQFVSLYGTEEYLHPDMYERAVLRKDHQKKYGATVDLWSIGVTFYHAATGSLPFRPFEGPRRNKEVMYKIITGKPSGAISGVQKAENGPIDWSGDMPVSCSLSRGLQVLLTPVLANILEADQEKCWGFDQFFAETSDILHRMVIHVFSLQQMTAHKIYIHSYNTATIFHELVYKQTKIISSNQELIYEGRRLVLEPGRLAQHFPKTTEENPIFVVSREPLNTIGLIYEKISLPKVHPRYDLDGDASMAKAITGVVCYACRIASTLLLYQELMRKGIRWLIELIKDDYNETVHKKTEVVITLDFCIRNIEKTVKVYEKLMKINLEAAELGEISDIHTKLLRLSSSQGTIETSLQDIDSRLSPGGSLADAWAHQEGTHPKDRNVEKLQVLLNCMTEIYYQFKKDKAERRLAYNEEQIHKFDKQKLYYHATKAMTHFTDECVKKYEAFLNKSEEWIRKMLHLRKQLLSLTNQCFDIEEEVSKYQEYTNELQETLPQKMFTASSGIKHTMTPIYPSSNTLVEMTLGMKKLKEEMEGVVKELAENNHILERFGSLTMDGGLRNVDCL
The assay is described as follows: TBK Biochemical Assay. Conditions: read-out: TBK1 IC50. The procedure, abridged:
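TBK1 enzyme and substrate incubated with compounds (10-point 1:4 dilution, top 30 uM final, 1% DMSO) for 90 min at 25° C, then stopped. Substrate/product peaks read by microfluidic mobility-shift (Caliper LabChip); 10 uM staurosporine as full-inhibition control.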

Take `COc1cc(C(=O)N(C)CCO)cnc1-c1cc2ncc(OC)c(-c3ccc(OC4CCOCC4)c(C#N)n3)c2o1` [Compound 362, 6-[7-[6-cyano-5-(oxan-4-yloxy)pyridin-2-yl]-6-methoxyfuro[3,2-b]pyridin-2-yl]-N-(2-hydroxyethyl)-5-methoxy-N-methylpyridine-3-carboxamide]: the IC50 on IKKε and at TBK1 was 100 to 1000 nM each time.
With `COc1cc(C(=O)N(C)C)cnc1-c1cc2ncc(C)c(-c3ccc(OC4CCOCC4)c(C#N)n3)c2o1` [Compound 321, 6-[7-[6-cyano-5-(oxan-4-yloxy)pyridin-2-yl]-6-methylfuro[3,2-b]pyridin-2-yl]-5-methoxy-N,N-dimethylpyridine-3-carboxamide hydrochloride], the half-maximal inhibitory concentration (IC50) at IKKε and on TBK1 was 100 to 1000 nM throughout.
With `COc1cc(C(=O)N[C@@H]2CCNC[C@@H]2F)ccc1-c1cc2nccc(-c3cc(F)c(NC4CCOCC4)c(C#N)c3)c2o1` (single isomer, unassigned) [Compound 254, 4-(7-(3-cyano-5-fluoro-4-(tetrahydro-2H-pyran-4-ylamino)phenyl)furo[3,2-b]pyridin-2-yl)-N-(3-fluoropiperidin-4-yl)-3-methoxybenzamide hydrochloride], the results for the concentration for half-maximal inhibition (IC50) on IKKε and on TBK1 were < 100 nM and 100 to 1000 nM, respectively.
On the same counts, the results for `COc1cc(C(=O)N(C)CCO)ccc1-c1cc2ncc(C3CC3)c(-c3ccc(NC4CCOCC4)c(C#N)c3)c2o1` [Compound 305, 4-(7-[3-cyano-4-[(oxan-4-yl)amino]phenyl]-6-cyclopropylfuro[3,2-b]pyridin-2-yl)-N-(2-hydroxyethyl)-3-methoxy-N-methylbenzamide] are > 5000 nM and > 5000 nM.
As for `N#Cc1cc(-c2ccnc3cc(-c4ccc(C(=O)O)cc4)oc23)ccc1Oc1cccnc1` [Compound 186, 4-{7-[3-Cyano-4-(pyridin-3-yloxy)-phenyl]-furo[3,2-b]pyridin-2-yl}-benzoic acid], the figures for the IC50 at IKKε and on TBK1 were 100 to 1000 nM and 1000 to 5000 nM, respectively.
For the compound `COc1cc(C(=O)N(C)C)ccc1-c1cc2nccc(-c3ccc(OC4CC(C)(C)NC(C)(C)C4)c(C#N)c3)c2o1` [Compound 229, 4-(7-(3-cyano-4-(2,2,6,6-tetramethylpiperidin-4-yloxy)phenyl)furo[3,2-b]pyridin-2-yl)-3-methoxy-N,N-dimethylbenzamide], the concentration for half-maximal inhibition (IC50) on IKKε and on TBK1 was 100 to 1000 nM each time.
Regarding `C[C@@H]1COC[C@@H](C)C1Oc1ccc(-c2ccnc3cc(-c4ccc(C(=O)N(C)C)cc4)oc23)cc1C#N` (single isomer, unassigned) [Compound 220, 4-(7-(3-cyano-4-(3,5-dimethyl-tetrahydro-2H-pyran-4-yloxy)phenyl)furo[3,2-b]pyridin-2-yl)-N,N-dimethylbenzamide hydrochloride], the IC50 at IKKε and at TBK1 was 100 to 1000 nM throughout.
For `N#Cc1cc(-c2ccnc3cc(-c4ccc(C(=O)N[C@@H]5CCNC[C@@H]5F)cc4F)oc23)ccc1NC1CCOCC1` (stereo in doubt) [Compound 252, 4-(7-(3-cyano-4-(tetrahydro-2H-pyran-4-ylamino)phenyl)furo[3,2-b]pyridin-2-yl)-3-fluoro-N-(3-fluoropiperidin-4-yl)benzamide hydrochloride], the IC50 on IKKε and at TBK1 was 100 to 1000 nM in each case.
For the compound `COc1cc(C(=O)N(C)C)cnc1-c1cc2ncc(C3CC3)c(-c3ccc(OC4CCOCC4)c(C#N)c3)c2o1` [Compound 323, 6-(7-(3-cyano-4-(tetrahydro-2H-pyran-4-yloxy)phenyl)-6-cyclopropylfuro[3,2-b]pyridin-2-yl)-5-methoxy-N,N-dimethylnicotinamide], the IC50 at IKKε and at TBK1 was > 5000 nM in each case.
For the compound `COc1cc(C(=O)N(C)CCO)cnc1-c1cc2ncc(Cl)c(-c3ccc(OC4CCOCC4)c(C#N)c3)c2o1` [Compound 342, 6-[6-chloro-7-[3-cyano-4-(oxan-4-yloxy)phenyl]furo[3,2-b]pyridin-2-yl]-N-(2-hydroxyethyl)-5-methoxy-N-methylpyridine-3-carboxamide hydrochloride], the IC50 on IKKε and at TBK1 was 1000 to 5000 nM each time.
Turning to `CN(C)C(=O)c1ccc(-c2cc3nccc(-c4ccc(CN5CCOCC5)c(C#N)c4)c3o2)cc1` [Compound 222, 4-(7-(3-cyano-4-(morpholinomethyl)phenyl)furo[3,2-b]pyridin-2-yl)-N,N-dimethylbenzamide], the IC50 at IKKε and at TBK1 was 100 to 1000 nM throughout.
In the case of `COc1cc(C(=O)N(C)C)ccc1-c1cc2nccc(-c3ccc(O[C@H]4CCCNC4)c(C#N)c3)c2o1` [Compound 142, 4-{7-[3-Cyano-4-((S)-piperidin-3-yloxy)-phenyl]-furo[3,2-b]pyridin-2-yl}-3-methoxy-N,N-dimethyl-benzamide], the half-inhibitory concentration (IC50) on IKKε and on TBK1 was < 100 nM in each case.
In the case of `CN(C)C(=O)c1ccc(-c2cc3nccc(-c4cc(F)c(N(C)C5CCOCC5)c(C#N)c4)c3o2)cc1` [Compound 225, 4-(7-(3-cyano-5-fluoro-4-(methyl(tetrahydro-2H-pyran-4-yl)amino)phenyl)furo[3,2-b]pyridin-2-yl)-N,N-dimethylbenzamide hydrochloride], the concentration for half-maximal inhibition (IC50) at IKKε and on TBK1 was 100 to 1000 nM in each case.
Regarding `COc1cc(C(=O)N2C3COCC2CC(O)C3)ccc1-c1cc2nccc(-c3ccc(OC4CCOCC4)c(C#N)c3)c2o1` (centres unmarked) [Compound 66, 5-{2-[4-(7-Hydroxy-3-oxa-9-aza-bicyclo[3.3.1]nonane-9-carbonyl)-2-methoxy-phenyl]-furo[3,2-b]pyridin-7-yl}-2-(tetrahydro-pyran-4-yloxy)-benzonitrile], the IC50 at IKKε and at TBK1 was < 100 nM throughout.
As for `COc1cc(C(=O)N(C)CCO)ccc1-c1cc2nccc(-c3ccc(NC4CCOCC4)c(C#N)c3)c2o1` [Compound 230, 4-(7-(3-cyano-4-(tetrahydro-2H-pyran-4-ylamino)phenyl)furo[3,2-b]pyridin-2-yl)-N-(2-hydroxyethyl)-3-methoxy-N-methylbenzamide], the 50% inhibitory concentration (IC50) on IKKε and at TBK1 was < 100 nM throughout.
Turning to `CN(CCO)C(=O)c1ccc(-c2cc3ncc(Cl)c(-c4ccc(OC5CCOCC5)c(C#N)c4)c3o2)c(F)c1` [Compound 267, 4-(6-chloro-7-(3-cyano-4-(tetrahydro-2H-pyran-4-yloxy)phenyl)furo[3,2-b]pyridin-2-yl)-3-fluoro-N-(2-hydroxyethyl)-N-methylbenzamide], the IC50 is > 5000 nM on IKKε and 1000 to 5000 nM at TBK1.
The corresponding values for `CNC(=O)c1ccc(-c2cc3nccc(-c4ccc(OC5CCOCC5)c(C#N)c4)c3o2)c(OC)c1` [Compound 100, 4-{7-[3-Cyano-4-(tetrahydro-pyran-4-yloxy)-phenyl]-furo[3,2-b]pyridin-2-yl}-3-methoxy-N-methyl-benzamide] are < 100 nM and < 100 nM.
The corresponding values for `COc1cc(C(=O)NC2CCN(C(=O)OC(C)(C)C)C2)ccc1-c1cc2nccc(-c3ccc(NC4CCOCC4)c(C#N)c3)c2o1` (centres unmarked) [Compound 147, 3-(4-{7-[3-Cyano-4-(tetrahydro-pyran-4-ylamino)-phenyl]-furo[3,2-b]pyridin-2-yl}-3-methoxy-benzoylamino)-pyrrolidine-1-carboxylic acid tert-butyl ester] are < 100 nM and < 100 nM.
The corresponding values for `COc1cc(C(=O)N(C)CCO)cnc1-c1cc2ncc(C)c(-c3ccc(OC4CCOCC4)c(C#N)n3)c2o1` [Compound 360, 6-[7-[6-cyano-5-(oxan-4-yloxy)pyridin-2-yl]-6-methylfuro[3,2-b]pyridin-2-yl]-N-(2-hydroxyethyl)-5-methoxy-N-methylpyridine-3-carboxamide hydrochloride] are 100 to 1000 nM and 100 to 1000 nM.
